We go through 37 compounds from patent publication US9260454B2, “Isothiazolopyridine-2-carboxamides and their use as pharmaceuticals” (Sanofi, priority 2011, dated 2016).

One experiment deals with recombinant human TGM2 (Homo sapiens (Human), UniProt P21980). The experiment is described as follows: Assay for quantification of TGM2 transglutaminase inhibitory activity (fluorescence, H-Abz-APE(CAD-DNP)QEA-OH substrate). The class given is biochemical. The following applies: recombinant human TGM2 25 μg/ml; substrate 50 μM, glycine methyl ester 5 mM; 15 min preincubation at room temperature; pH 7.5; read-out: IC50 values for inhibition of TGM2. The procedure:
a) Assay Method for the Quantification of TGM2 Transglutaminase Inhibitory Activity
The activity of the compounds for inhibition of TGM2 was determined with recombinant human TGM2 (Zedira GmbH, Darmstadt, Germany, Product Nr. T002) and the peptidic compound H-Abz-APE(CAD-DNP)QEA-OH as substrate (Zedira GmbH, Darmstadt, Germany, Product Nr. A102; CAD-DNP is N^ω-2,4-dinitrophenyl-cadaverine, i.e. the carboxylic acid group in the side chain of the respective glutamyl moiety is amidated with the primary amino group of N-(2,4-dinitrophenyl)pentane-1,5-diamine; cf. also K. Oertel et al., Anal. Biochem. 2007, 367: 152-158). For this purpose, 2 μl of a solution of different concentrations of the test compound in dimethyl sulfoxide was added to 28 μl of buffer (50 mM TRIS, 100 mM NaCl, 10 mM CaCl2, pH 7.5) and 10 μl of a TGM2 solution to give a TMG2 test concentration of 25 μg/ml, and the mixture incubated for 15 minutes at room temperature in a 96 half-well microtiter plate. The enzyme reaction was started by the addition of 10 μl of substrate solution containing H-Abz-APE(CAD-DNP)QEA-OH and glycine methyl ester hydrochloride in buffer to give test concentrations of H-Abz-APE(CAD-DNP)QEA-OH of 50 μM and of glycine methyl ester hydrochloride of 5 mM. The time course of the reaction was monitored with excitation at 318 nm and measurement at emission wavelength 418 nm in a microtiter plate reader (SpectraMax M5, Molecular Devices) over 15 minutes. Rates were calculated from the linear part of the curve (generally between 5 and 10 minutes). IC50 values were calculated from the means (duplicates) of a dilution series of the compound, using the software Softmax Pro (Version 4.8, Molecular Devices).

In experiment [1] the test system is micromass culture of mesenchymal cells. Particulars: 30 μM in micromass culture; cited from earlier work.
The test system of a further experiment is chondrocytes. Particulars: cited from earlier work.

Sequence of recombinant human TGM2 (P21980 whole entry): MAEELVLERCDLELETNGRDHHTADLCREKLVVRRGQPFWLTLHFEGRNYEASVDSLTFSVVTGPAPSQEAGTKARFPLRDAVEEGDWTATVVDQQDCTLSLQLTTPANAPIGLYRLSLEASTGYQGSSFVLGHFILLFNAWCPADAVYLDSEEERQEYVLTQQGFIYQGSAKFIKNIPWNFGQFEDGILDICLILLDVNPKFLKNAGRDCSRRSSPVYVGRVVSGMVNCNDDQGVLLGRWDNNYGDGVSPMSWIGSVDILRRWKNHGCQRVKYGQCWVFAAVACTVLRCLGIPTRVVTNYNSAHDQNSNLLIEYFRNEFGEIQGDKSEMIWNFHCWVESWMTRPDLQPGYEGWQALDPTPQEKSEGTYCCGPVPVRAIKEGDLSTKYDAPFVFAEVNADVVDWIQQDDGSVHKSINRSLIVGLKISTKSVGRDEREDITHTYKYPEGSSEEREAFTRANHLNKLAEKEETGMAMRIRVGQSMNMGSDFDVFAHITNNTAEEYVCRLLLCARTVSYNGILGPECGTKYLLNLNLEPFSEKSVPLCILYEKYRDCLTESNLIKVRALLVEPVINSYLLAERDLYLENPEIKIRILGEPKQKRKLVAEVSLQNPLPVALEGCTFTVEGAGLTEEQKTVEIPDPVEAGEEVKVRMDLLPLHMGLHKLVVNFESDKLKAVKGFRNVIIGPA

With `O=C1NCCN1C1CCN(C(=O)n2sc3c(ccc[n+]3[O-])c2=O)CC1` [Example 62], on recombinant human TGM2, the IC50 worked out at 3100 nM. On to `O=C(C1CC1)N1CCN(C(=O)n2sc3c(ccc[n+]3[O-])c2=O)CC1` [Example 28], for which the IC50 on recombinant human TGM2 came to 45 nM. `O=C(N1CCN(c2ccc(N3CCCC3)nn2)CC1)n1sc2c(ccc[n+]2[O-])c1=O` [Example 46]: at recombinant human TGM2, the IC50 was determined as 140 nM.

On to `O=C(CCOc1ccccc1)N1CCN(C(=O)n2sc3ncccc3c2=O)CC1` [Example 20], for which, at recombinant human TGM2, the IC50 turned out to be 110 nM. As for `CC(=O)N1CCN(C(=O)n2sc3ncccc3c2=O)CC1` [Example 26], at recombinant human TGM2, the IC50 is 340 nM. `O=C(O)CN1CCN(C(=O)n2sc3ncccc3c2=O)CC1` [Example 8]: the IC50 at recombinant human TGM2 was 18000 nM. On the same count and under the same terms, to `O=C(O)CN1CCN(C(=O)n2sc3c(ccc[n+]3[O-])c2=O)CC1` [Example 10] belongs 12000 nM. As for `O=C(NC(Cc1c[nH]c2ccc(F)cc12)C(=O)NCC1CC(Br)=NO1)OCc1cnc2ccccc2c1` (centres unmarked) [ERW1069], in experiment [1], the Xylt2 expression result was “increase” and the proteoglycan deposition result is reported as “increase”. Regarding `O=C1CN(C(=O)n2sc3c(ccc[n+]3[O-])c2=O)CCN1` [Example 80], the concentration for half-maximal inhibition (IC50) on recombinant human TGM2 came to 150 nM. On to `O=C(CCOc1ccccc1)N1CCN(C(=O)n2sc3c(ccc[n+]3[O-])c2=O)CC1` [Example 21], for which the IC50 at recombinant human TGM2 came out at 14 nM. `N#Cc1ccc(N2CCN(C(=O)n3sc4ncccc4c3=O)CC2)cc1` [Example 6]: the IC50 at recombinant human TGM2 stood at 1100 nM. As for `CCCC(=O)C1CCN(C(=O)n2sc3c(ccc[n+]3[O-])c2=O)CC1` [Example 78], the IC50 at recombinant human TGM2 stood at 120 nM. As to `CN1CCN(C2CCN(C(=O)n3sc4c(ccc[n+]4[O-])c3=O)CC2)CC1` [Example 40], the IC50 at recombinant human TGM2 was found to be 340 nM. With `O=C([C@@H]1CCCN1)N1CCN(C(=O)n2sc3c(ccc[n+]3[O-])c2=O)CC1` [Example 50], the IC50 on recombinant human TGM2 came to 2300 nM. For `CC(NC(=O)n1sc2c(ccc[n+]2[O-])c1=O)c1ccc2c(c1)OCCO2` (centres unmarked) [Example 16], the IC50 at recombinant human TGM2 amounted to 26000 nM. For the compound `COc1ccc(CNC(=O)n2sc3c(ccc[n+]3[O-])c2=O)cc1OC` [Example 24], the IC50 at recombinant human TGM2 was found to be 370 nM. As to `O=C(C1CC1)N1CCN(C(=O)n2sc3ncccc3c2=O)CC1` [Example 27], the half-maximal inhibitory concentration (IC50) on recombinant human TGM2 was 420 nM. Take `COCCC(=O)N1CCN(C(=O)n2sc3c(ccc[n+]3[O-])c2=O)CC1` [Example 83]: the IC50 on recombinant human TGM2 worked out at 750 nM.

For `CC(C)C(=O)N1CCN(C(=O)n2sc3c(ccc[n+]3[O-])c2=O)CC1` [Example 29], the IC50 on recombinant human TGM2 is 62 nM. `CNC1CCN(C(=O)n2sc3c(ccc[n+]3[O-])c2=O)CC1` [Example 42]: the IC50 on recombinant human TGM2 came to 240 nM.

For `CCNCC(=O)N1CCN(C(=O)n2sc3c(ccc[n+]3[O-])c2=O)CC1` [Example 55], the IC50 on recombinant human TGM2 worked out at 2000 nM. On to `O=C(N1CCOCC1)n1sc2c(ccc[n+]2[O-])c1=O` [Example 5], for which the IC50 on recombinant human TGM2 worked out at 270 nM. Turning to `O=C(c1ccncc1)N1CCN(C(=O)n2sc3c(ccc[n+]3[O-])c2=O)CC1` [Example 74], at recombinant human TGM2, the IC50 stood at 130 nM.

Consider `COc1ccc(C(=O)N2CCN(C(=O)n3sc4c(ccc[n+]4[O-])c3=O)CC2)cc1OC` [Example 69], for which, at recombinant human TGM2, the IC50 turned out to be 54 nM. Consider `CC(=O)N1CCN(C(=O)n2sc3c(ccc[n+]3[O-])c2=O)CC1` [Example 70], for which the IC50 on recombinant human TGM2 was found to be 62 nM. Same read-out and setting: to `NC(=O)N1CCN(C(=O)n2sc3c(ccc[n+]3[O-])c2=O)CC1` [Example 84] belongs 1700 nM; to `COc1ccc(C(=O)N2CCN(C(=O)n3sc4ncccc4c3=O)CC2)cc1OC` [Example 68], 65 nM. Turning to `C[C@@H]1CN(C(=O)n2sc3c(ccc[n+]3[O-])c2=O)C[C@H](C)O1` [Example 81], the IC50 on recombinant human TGM2 came to 2900 nM.

On to `NCCSSCCN` [cystamine], for which the “active TGFβ1 in chondrocytes” value with chondrocytes is “decrease”.

For `CCS(=O)(=O)N1CCN(C(=O)n2sc3c(ccc[n+]3[O-])c2=O)CC1` [Example 38], the concentration for half-maximal inhibition (IC50) on recombinant human TGM2 was found to be 61 nM. `O=C(N1CCC(O)CC1)n1sc2c(ccc[n+]2[O-])c1=O` [Example 86]: the IC50 at recombinant human TGM2 came out at 2100 nM. Consider `O=C(N1CCC2(CCCN2)CC1)n1sc2c(ccc[n+]2[O-])c1=O` [Example 45], for which the IC50 at recombinant human TGM2 stood at 4300 nM. As for `NCC(=O)N1CCN(C(=O)n2sc3c(ccc[n+]3[O-])c2=O)CC1` [Example 44], the IC50 on recombinant human TGM2 was determined as 120 nM. For `CCS(=O)(=O)N1CCN(C(=O)n2sc3ncccc3c2=O)CC1` [Example 36], the IC50 on recombinant human TGM2 amounted to 430 nM. Take `O=C(c1ccccn1)N1CCN(C(=O)n2sc3c(ccc[n+]3[O-])c2=O)CC1` [Example 89]: the IC50 at recombinant human TGM2 came out at 72 nM. On to `O=C1CC[C@@H](C(=O)N2CCN(C(=O)n3sc4c(ccc[n+]4[O-])c3=O)CC2)N1` [Example 59], for which the IC50 on recombinant human TGM2 came to 1000 nM. Take `O=C(N1CCNCC1)n1sc2c(ccc[n+]2[O-])c1=O` [Example 72]: the IC50 on recombinant human TGM2 was found to be 1200 nM.
